The assay deals with Epidermal growth factor receptor (Homo sapiens, UniProt P00533). As to the kind of experiment: Inhibition of EGFR (unknown origin).
Sequence of Epidermal growth factor receptor (P00533 whole entry): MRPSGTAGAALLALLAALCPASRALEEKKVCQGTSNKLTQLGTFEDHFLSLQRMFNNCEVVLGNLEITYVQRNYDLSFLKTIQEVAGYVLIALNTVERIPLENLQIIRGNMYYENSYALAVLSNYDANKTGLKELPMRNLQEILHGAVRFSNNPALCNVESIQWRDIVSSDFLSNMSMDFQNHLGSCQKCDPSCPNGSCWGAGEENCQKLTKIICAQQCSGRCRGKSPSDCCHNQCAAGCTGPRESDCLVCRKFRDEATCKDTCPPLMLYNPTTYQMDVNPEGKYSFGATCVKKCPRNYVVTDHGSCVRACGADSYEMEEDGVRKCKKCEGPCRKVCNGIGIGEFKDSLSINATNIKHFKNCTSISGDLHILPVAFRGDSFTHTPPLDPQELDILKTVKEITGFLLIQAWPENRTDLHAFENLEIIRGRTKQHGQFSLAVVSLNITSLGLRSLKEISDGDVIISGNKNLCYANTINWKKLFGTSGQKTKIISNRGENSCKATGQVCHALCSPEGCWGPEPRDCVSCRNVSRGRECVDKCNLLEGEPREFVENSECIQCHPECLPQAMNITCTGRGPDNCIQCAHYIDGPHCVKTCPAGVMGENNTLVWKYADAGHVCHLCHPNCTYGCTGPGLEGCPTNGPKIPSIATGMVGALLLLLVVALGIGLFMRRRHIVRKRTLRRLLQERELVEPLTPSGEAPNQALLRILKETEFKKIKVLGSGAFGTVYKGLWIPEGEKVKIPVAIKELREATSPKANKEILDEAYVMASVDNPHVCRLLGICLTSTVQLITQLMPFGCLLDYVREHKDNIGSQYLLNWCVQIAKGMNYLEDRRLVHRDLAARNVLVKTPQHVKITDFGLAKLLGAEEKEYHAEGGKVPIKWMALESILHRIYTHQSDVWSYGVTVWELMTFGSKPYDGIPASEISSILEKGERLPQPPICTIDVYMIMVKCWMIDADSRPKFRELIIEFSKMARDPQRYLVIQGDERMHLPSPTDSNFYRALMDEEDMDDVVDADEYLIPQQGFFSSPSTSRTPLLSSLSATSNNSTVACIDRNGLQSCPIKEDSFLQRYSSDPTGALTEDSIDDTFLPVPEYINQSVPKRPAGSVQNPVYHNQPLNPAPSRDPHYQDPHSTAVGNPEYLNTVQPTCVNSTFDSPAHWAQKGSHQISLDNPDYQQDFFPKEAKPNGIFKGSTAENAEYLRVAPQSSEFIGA
For orientation: IC50 means the midpoint of a concentration-inhibition curve. High values mean weaker potency, low ones greater potency. Take `N=C1NC(=O)/C(=C2/CCNC(=O)c3[nH]c(Br)c(Br)c32)N1`: the IC50 was 21.1 µM. This counts as double-digit micromolar.
The molecule `N=C1N=C(NCCS(=O)(=O)O)/C(=C/C(O)CNC(=O)c2cc(Br)c(Br)[nH]2)N1` (centres undefined) [TAUROACIDIN A] showed an IC50 of 37.9 µM.
As for `COc1ccc(Cc2nc(-c3cc(Br)c(OCCCN(C)C)c(Br)c3)c[nH]c2=O)cc1Br` [Ma'edamine A], the figure is 10.6 µM; as for `N=C1NC(=O)/C(=C2/CCNC(=O)c3[nH]cc(Br)c32)N1`, 18.5 µM.
